ChEMBL document CHEMBL6120973 (J Med Chem, 2024)

Legend:
[1] = test system: Human immunodeficiency virus 1; experiment: Antiviral activity against HIV-1 harboring RT L100I mutant infected in human MT4 cells assessed as protection against virus-induced cytopathic effect incubated for 5 days by MTT assay; type: functional, organism-based; settings: Human immunodeficiency virus 1, MT4, 120 h
[2] = test system: Human immunodeficiency virus 1; experiment: Antiviral activity against HIV-1 harboring RT K103N mutant infected in human MT4 cells assessed as protection against virus-induced cytopathic effect incubated for 5 days by MTT assay; type: functional, organism-based; settings: Human immunodeficiency virus 1, MT4, 120 h
[3] = test system: Human immunodeficiency virus 1; experiment: Antiviral activity against HIV-1 harboring RT K103N/Y181C double mutant infected in human MT4 cells assessed as protection against virus-induced cytopathic effect incubated for 5 days by MTT assay; type: functional, organism-based; settings: Human immunodeficiency virus 1, MT4, 120 h
[4] = biological target: Human immunodeficiency virus type 1 reverse transcriptase (Human immunodeficiency virus 1, UniProt Q72547); experiment: Inhibition of recombinant wild type HIV-1 Reverse transcriptase incubated for 40 mins by Pico-green reagent based fluorescence analysis
Cytochrome P450 3A4 = Cytochrome P450 3A4 (Homo sapiens, UniProt P08684); experiment: Inhibition of CYP3A4 in human liver microsomes using midazolam as substrate preincubated for 10 mins followed by NADPH addition and measured after 15 mins by LC/MS/MS analysis
Sequence of Cytochrome P450 3A4 (P08684 whole entry): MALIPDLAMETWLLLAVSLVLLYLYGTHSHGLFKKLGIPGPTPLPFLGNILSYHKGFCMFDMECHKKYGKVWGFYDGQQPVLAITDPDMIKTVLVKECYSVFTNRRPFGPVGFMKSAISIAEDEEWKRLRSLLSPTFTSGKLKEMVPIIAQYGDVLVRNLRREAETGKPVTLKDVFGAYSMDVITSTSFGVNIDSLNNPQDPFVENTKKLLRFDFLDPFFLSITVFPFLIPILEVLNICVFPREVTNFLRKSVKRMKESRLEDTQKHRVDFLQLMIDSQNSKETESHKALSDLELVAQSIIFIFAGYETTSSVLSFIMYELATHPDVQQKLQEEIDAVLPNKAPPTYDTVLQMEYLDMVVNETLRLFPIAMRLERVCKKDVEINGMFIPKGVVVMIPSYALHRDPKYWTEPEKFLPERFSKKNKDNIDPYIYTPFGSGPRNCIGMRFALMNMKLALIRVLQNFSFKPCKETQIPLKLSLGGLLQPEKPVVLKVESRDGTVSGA

[5] = biological target: Voltage-gated inwardly rectifying potassium channel KCNH2 (Homo sapiens, UniProt Q12809); experiment: Inhibition of human ERG expressed in CHO cells at holding potential of -80 mV by automated patch clamp electrophysiological method; type: toxicity, cell-based
Sequence of Voltage-gated inwardly rectifying potassium channel KCNH2 (Q12809 whole entry): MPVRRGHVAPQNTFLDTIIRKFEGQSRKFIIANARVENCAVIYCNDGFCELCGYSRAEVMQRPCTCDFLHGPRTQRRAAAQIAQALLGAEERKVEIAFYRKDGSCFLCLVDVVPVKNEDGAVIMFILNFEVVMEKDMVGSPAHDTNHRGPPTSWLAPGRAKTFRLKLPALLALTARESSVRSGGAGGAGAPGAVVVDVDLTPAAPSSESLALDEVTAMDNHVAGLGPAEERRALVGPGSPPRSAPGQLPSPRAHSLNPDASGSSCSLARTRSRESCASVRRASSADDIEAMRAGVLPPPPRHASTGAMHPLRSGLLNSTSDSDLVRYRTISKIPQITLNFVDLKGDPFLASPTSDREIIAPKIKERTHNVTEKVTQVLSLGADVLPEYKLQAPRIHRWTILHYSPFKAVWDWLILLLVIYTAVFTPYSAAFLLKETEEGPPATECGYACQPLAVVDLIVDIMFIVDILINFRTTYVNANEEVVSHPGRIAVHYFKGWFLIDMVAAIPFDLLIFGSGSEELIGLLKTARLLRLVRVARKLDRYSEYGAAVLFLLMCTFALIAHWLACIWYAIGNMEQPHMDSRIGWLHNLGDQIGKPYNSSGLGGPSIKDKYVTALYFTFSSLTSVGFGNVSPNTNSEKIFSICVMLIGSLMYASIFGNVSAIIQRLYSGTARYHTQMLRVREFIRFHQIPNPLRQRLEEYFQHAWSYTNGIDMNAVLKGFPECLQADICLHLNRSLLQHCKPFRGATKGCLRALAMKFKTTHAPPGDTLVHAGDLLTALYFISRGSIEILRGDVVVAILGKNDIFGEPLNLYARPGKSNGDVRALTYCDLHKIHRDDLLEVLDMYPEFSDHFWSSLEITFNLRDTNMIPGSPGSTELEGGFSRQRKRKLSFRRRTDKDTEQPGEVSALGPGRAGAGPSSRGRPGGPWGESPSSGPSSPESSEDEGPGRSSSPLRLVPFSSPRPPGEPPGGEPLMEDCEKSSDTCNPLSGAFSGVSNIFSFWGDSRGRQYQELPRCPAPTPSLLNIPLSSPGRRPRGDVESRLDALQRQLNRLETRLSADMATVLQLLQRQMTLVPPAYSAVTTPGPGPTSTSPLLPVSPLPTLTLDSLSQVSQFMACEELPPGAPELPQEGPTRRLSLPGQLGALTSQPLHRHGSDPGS

[6] = Metabolic stability in human liver microsomes assessed as half-life at 0.1 uM preincubated for 10 mins followed by NADPH addition and measured upto 60 mins by LC-MS/MS analysis; type: ADME, Microsome; settings: time < 70 min
[7] = Metabolic stability in dog liver microsomes assessed as half-life at 0.1 uM preincubated for 10 mins followed by NADPH addition and measured upto 60 mins by LC-MS/MS analysis; type: ADME, Canis lupus familiaris, Microsome; settings: time < 70 min
[8] = Acute toxicity in female ICR mouse assessed as effect on body weight at 2000 mg/kg, IG measured after 14 days; type: organism-based; settings: in vivo, po, 336 h, time 14 day
[9] = Acute toxicity in male ICR mouse assessed as effect on pathological damage in lung at 2000 mg/kg, IG measured after 14 days by H and E staining based analysis; type: organism-based; settings: in vivo, po, 336 h, time 14 day
[10] = Acute toxicity in male ICR mouse assessed as effect on pathological damage in kidney at 2000 mg/kg, IG measured after 14 days by H and E staining based analysis; type: organism-based; settings: in vivo, po, 336 h, time 14 day
[11] = Acute toxicity in female ICR mouse assessed as effect on pathological damage in heart at 2000 mg/kg, IG measured after 14 days by H and E staining based analysis; type: organism-based; settings: in vivo, po, 336 h, time 14 day
[12] = Acute toxicity in female ICR mouse assessed as effect on pathological damage in spleen at 2000 mg/kg, IG measured after 14 days by H and E staining based analysis; type: organism-based; settings: in vivo, po, 336 h, time 14 day

`Cc1cc(-c2ccncc2)cc(C)c1Nc1nc(Nc2ccc(C#N)cc2)ncc1-c1cn[nH]c1` showed an EC50 [1] of 9 nM, an EC50 [2] of 7 nM and an EC50 [3] of 42 nM. The IC50 [4] was 49 nM, the IC50 (Cytochrome P450 3A4) was > 50000 nM and the IC50 [5] was > 40000 nM. The half-life at 0.1 µM [6] was 29.9 min, the half-life at 0.1 µM [7] was 58.8 min and the Activity [8] was “Non-toxic”. For the same compound, the Activity [9] was “Non-toxic”, the Activity [10] was “Non-toxic” and the Activity [11] was “Non-toxic”. For the same compound, the Activity [12] was “Non-toxic”.
